Results published in PMC6927578 (Archiv der Pharmazie, 2016).
Like-named read-outs stand apart in the source and are kept apart here.

Assays:
[1] = biological target: HDAC1 (Homo sapiens, UniProt Q13547); experiment: Fluor de Lys HDAC isoform assay, HDAC1; conditions: for isoform selectivity among HDAC1, 3 and 6: 125 μM single concentration screen (Fig. 2)
[2] = tested on: HDAC activity from HeLa cell lysates; experiment: Fluor de Lys in vitro fluorescence HDAC activity assay with HeLa cell lysates; type: biochemical, human; conditions: for fold reduced potency compared to SAHA: HeLa cell lysates IC50 ratio; for IC50 / % activity remaining: HeLa cell lysates; for IC50: mean of three trials with standard error; for % activity remaining: 250 μM compound
[3] = biological target: HDAC3 (Homo sapiens, UniProt O15379); experiment: Fluor de Lys HDAC isoform assay, HDAC3
HDAC3, sequence (O15379 whole entry, canonical isoform): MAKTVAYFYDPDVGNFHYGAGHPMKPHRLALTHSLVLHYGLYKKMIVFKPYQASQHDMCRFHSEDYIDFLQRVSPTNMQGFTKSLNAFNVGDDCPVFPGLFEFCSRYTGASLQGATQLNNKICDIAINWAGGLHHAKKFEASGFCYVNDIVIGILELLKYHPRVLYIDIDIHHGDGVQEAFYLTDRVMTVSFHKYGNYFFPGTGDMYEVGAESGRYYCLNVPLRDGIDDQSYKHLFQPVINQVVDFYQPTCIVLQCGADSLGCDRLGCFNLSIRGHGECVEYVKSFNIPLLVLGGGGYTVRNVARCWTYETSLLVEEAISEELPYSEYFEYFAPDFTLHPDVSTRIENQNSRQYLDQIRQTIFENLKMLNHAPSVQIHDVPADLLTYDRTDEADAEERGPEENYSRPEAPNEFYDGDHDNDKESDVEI
HDAC3, sequence (Q9Y618 395-489 partner limits assumed): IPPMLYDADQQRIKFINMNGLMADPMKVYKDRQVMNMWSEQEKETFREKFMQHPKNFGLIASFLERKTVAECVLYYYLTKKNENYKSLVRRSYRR

[4] = biological target: T1, HDAC6 (Homo sapiens, UniProt Q9UBN7); experiment: Fluor de Lys HDAC isoform assay, HDAC6
T1 sequence (Q9UBN7 1-1215): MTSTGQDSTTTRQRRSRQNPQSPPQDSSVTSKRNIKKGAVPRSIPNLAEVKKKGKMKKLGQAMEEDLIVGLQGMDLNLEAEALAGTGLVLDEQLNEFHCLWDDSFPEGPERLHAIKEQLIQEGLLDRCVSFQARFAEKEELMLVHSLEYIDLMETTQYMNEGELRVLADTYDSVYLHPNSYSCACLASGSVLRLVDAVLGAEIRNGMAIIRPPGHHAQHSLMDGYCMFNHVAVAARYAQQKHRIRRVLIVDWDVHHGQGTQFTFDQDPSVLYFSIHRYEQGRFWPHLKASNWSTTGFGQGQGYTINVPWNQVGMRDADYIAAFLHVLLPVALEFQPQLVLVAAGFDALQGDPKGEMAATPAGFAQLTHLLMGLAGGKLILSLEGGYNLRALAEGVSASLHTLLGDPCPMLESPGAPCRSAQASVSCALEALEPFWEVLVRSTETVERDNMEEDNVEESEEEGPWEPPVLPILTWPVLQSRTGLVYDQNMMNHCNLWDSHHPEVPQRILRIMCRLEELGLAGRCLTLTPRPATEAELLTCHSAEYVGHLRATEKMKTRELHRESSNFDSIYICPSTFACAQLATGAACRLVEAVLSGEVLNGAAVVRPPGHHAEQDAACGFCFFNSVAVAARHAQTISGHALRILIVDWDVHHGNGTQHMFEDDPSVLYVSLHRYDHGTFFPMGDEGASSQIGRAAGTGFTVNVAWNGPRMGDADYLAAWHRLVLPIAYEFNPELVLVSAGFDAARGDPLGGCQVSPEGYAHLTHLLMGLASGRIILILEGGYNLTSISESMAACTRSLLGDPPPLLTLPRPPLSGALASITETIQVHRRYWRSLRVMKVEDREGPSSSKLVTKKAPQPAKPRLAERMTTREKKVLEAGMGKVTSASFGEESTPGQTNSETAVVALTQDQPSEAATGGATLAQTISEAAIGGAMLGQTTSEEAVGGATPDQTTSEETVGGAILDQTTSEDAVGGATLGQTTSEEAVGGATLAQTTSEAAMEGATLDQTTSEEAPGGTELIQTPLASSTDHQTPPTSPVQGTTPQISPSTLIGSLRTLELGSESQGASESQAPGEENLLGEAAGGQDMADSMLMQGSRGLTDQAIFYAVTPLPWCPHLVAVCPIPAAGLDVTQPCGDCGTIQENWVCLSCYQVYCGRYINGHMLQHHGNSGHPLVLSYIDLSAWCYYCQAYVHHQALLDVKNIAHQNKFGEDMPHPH

[5] = Solubility observed in the HDAC assay; type: physicochemical; conditions: assay conditions; prevented testing above 250 μM
[6] = 125 μM single concentration screen

HDAC1, sequence (Q13547 whole entry, canonical isoform): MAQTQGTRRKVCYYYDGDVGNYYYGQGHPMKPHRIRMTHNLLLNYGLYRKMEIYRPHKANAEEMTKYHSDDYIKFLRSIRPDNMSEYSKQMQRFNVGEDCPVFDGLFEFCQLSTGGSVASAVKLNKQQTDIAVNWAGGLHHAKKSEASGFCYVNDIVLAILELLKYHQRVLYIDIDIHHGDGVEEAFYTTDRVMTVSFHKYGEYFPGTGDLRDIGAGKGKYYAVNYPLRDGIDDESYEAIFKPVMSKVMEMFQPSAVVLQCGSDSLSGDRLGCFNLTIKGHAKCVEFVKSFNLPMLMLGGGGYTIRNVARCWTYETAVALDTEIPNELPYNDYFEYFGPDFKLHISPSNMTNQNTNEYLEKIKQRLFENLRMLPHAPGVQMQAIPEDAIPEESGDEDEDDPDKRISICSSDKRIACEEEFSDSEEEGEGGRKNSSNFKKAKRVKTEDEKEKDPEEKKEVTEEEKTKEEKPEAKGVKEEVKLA

SMILES | isoform selectivity among HDAC1, 3 and 6 [1] | fold reduced potency compared to SAHA [2] | IC50 [2] | IC50 [1] | preference for HDAC1 versus HDAC3 ([1]; ratio of IC50 values) | IC50 [3] | IC50 [4] | solubility [5] | % activity remaining [2] | activity remaining, HDAC1 [1, 6] | IC50 ([1]; read-out: IC50 HDAC1, mean of at least three trials with standard error) | inhibition of HDAC3 [3, 6] | inhibition of HDAC6 [4, 6]
CN(O)C(=O)CCCCCCC(=O)Nc1ccccc1 [Compound 2a, N^1-hydroxy-N^1-methyl-N^8-phenyloctanediamide] | little to no isoform selectivity | > 8800 fold | 794 ± 41 µM | – | – | – | – | – | – | – | – | – | –
CCCCCN(O)C(=O)CCCCCCC(=O)Nc1ccccc1 [Compound 2b, N^1-pentyl-N^1-hydroxy-N^8-phenyloctanediamide] | little to no isoform selectivity | 1700 fold | 153 ± 14 µM | – | – | – | – | – | – | – | – | – | –
O=C(CCCCCCC(=O)N(O)Cc1ccccc1)Nc1ccccc1 [Compound 2c, N^1-benzyl-N^1-hydroxy-N^8-phenyloctanediamide] | preferential HDAC1 inhibition | – | 293 ± 32 µM | 177 ± 21 µM | 2.5 fold | 440 ± 23 µM | 287 ± 9 µM | – | – | – | – | – | –
O=C(CCCCCCC(=O)N(O)CCc1ccccc1)Nc1ccccc1 [Compound 2d, N^1-hydroxy-N^1-phenethyl-N^8-phenyloctanediamide] | roughly similar potency against the isoforms | – | > 500 µM | – | – | – | – | low solubility at high concentrations | 80 ± 2% activity at 250 μM^b) | – | – | – | –
O=C(CCCCCCC(=O)N(O)Cc1ccc(-c2ccccc2)cc1)Nc1ccccc1 [Compound 2e, N^1-(biphenyl-4-methyl)-N^1-hydroxy-N^8-phenyloctanediamide] | preferential HDAC1 inhibition | – | > 500 µM | – | – | – | – | low solubility at high concentrations | 101 ± 1% activity with 250 μM^b) | 58±2% | 233 ± 40 µM | statistically insignificant inhibition | statistically insignificant inhibition
